Results taken from the NIST ThermoML archive (doi:10.1016/j.jct.2009.06.014).

Experiments:
[1] = wn = mass fraction of the nth substance listed; settings: 101 kPa, Liquid, Vibrating tube method
[2] = xn = mol fraction of the nth substance listed; settings: 101 kPa, Liquid, Vibrating tube method

CCCC[N+](CCCC)(CCCC)CCCC.[Br-] [tetrabutylammonium bromide] + O
mass density [kg/m3], [1]
Settings	w1 = 0.0697	w1 = 0.0999	w1 = 0.15	w1 = 0.1996	w1 = 0.25	w1 = 0.2998	w1 = 0.3499	w1 = 0.4002	w1 = 0.4498	w1 = 0.5
293.15 K	1003.85	1006.63	1011.35	1017.09	1021.73	–	1030.98	1036.25	1041.41	1044.73
298.15 K	1002.43	1005.08	1009.55	1015.11	1019.26	1027.44	1027.91	1032.9	1037.83	1041.06
303.15 K	1000.8	1003.31	1007.54	1012.76	1016.66	1024.31	1024.77	1029.49	1034.23	1037.36
308.15 K	998.95	1001.34	1005.34	1010.24	1013.92	1021.1	1021.55	1026.04	1030.59	1033.62
313.15 K	996.91	999.19	1002.97	1007.59	1011.06	1017.82	1018.26	1022.53	1026.92	1029.85
318.15 K	994.7	996.86	1000.45	1004.8	1008.08	1014.47	1014.9	1018.98	1023.21	1026.05
323.15 K	992.32	994.38	997.78	1001.88	1005	1011.05	1011.47	1015.38	1019.46	1022.22
328.15 K	989.78	991.74	994.96	998.84	1001.81	1007.56	1007.97	1011.71	1015.67	1018.35
333.15 K	987.09	988.96	992	995.69	998.5	1004	1004.4	1008	1011.83	1014.45

C1CCOC1 [tetrahydrofuran] + O
mass density [kg/m3], [2]
Settings	293.15 K	298.15 K	303.15 K	308.15 K	313.15 K	318.15 K	323.15 K	328.15 K	333.15 K
x2 = 0	889.47	885.04	880.76	876.63	872.62	868.72	864.91	861.19	855.57
x2 = 0.307	909.02	904.73	900.6	896.6	892.72	888.93	885.23	881.59	878.02
x2 = 0.5048	927.43	923.37	919.45	915.67	912.03	908.48	905.02	901.65	898.3
x2 = 0.6429	944.68	940.84	937.15	933.61	930.19	926.87	923.65	920.5	917.43
x2 = 0.8027	968.99	965.85	962.77	959.82	956.98	954.25	951.59	949.01	946.48
x2 = 0.8555	979.39	976.67	974.08	971.62	969.26	966.98	964.79	962.66	960.59
x2 = 0.9025	987.96	986.24	984.38	982.6	980.91	979.36	977.79	976.28	974.8
x2 = 0.9402	992.74	991.5	990.32	989.18	988.11	987.04	986	985.02	983.98
x2 = 0.9719	995.94	995.45	994.98	994.52	994.07	993.63	993.19	992.76	992.33
